In article PMC5915836, “Chiral probes for α1-AGP reporting by species-specific induced circularly polarised luminescence” (Chemical Science, 2018) one finds Bupivacaine data, which are given here for 1 compound.

Experiment [1] has as its target T1, human α1-AGP (α1-acid glycoprotein).
T1 construct: gene ORM1
The settings on record: pH 7.40, 298 K; competitive with [EuL^1].

For experiment [2], the target named is T2, bovine α1-AGP (α1-acid glycoprotein) (Bos taurus, UniProt Q3SZR3).
T2 construct: gene ORM1
T2 sequence (Q3SZR3 19-202): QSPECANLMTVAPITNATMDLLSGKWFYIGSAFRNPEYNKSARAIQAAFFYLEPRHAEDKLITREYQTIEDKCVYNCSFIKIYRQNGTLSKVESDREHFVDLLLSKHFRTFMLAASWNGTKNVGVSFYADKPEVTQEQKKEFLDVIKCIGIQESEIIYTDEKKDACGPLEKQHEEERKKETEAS
Briefly: competitive displacement of [EuL^[…]], Eu emission. The settings on record: pH 7.40, 298 K; competitive with [EuL^1]. Type of experiment: binding. Also on record: unit not given here.

For the compound `CCCCN1CCCCC1C(=O)Nc1c(C)cccc1C` (centres unmarked) [bupivacaine], the Bupivacaine in experiment [1] came to 5.6; in experiment [2], 6.4.
